The values that follow come from US12162858B2, “Quinoline derivatives as inhibitors of AXL/MER RTK and CSF1R” (QURIENT CO., LTD., priority 2018, dated 2024).

A value given as a limit tells only on which side of the number the result lay.

One may read the IC50 as the concentration needed to halve the response being measured.

For the assay, the target named is T1, Axl (Homo sapiens, UniProt P30530).
T1 sequence (P30530 26-894): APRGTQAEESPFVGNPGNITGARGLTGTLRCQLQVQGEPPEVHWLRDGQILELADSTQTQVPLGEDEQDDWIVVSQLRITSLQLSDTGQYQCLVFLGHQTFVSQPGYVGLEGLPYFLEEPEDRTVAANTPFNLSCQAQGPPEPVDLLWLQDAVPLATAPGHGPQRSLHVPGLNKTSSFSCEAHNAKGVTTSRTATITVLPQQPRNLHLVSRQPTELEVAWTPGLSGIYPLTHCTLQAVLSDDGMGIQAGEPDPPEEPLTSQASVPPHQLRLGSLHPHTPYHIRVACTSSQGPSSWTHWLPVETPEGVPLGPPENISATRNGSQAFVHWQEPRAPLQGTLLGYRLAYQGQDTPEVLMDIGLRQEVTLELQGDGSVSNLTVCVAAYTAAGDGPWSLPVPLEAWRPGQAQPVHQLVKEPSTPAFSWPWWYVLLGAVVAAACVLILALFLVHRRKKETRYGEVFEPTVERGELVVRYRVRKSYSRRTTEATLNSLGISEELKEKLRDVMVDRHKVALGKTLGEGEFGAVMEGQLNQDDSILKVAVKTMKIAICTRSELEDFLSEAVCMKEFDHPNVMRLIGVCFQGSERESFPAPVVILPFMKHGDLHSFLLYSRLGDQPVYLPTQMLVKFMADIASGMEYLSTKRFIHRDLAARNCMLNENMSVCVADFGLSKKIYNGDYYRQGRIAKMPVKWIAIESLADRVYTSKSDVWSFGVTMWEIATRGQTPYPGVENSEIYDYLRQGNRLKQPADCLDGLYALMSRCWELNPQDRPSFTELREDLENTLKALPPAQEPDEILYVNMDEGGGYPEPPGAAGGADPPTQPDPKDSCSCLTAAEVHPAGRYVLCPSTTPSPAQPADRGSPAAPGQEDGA
Nature of the assay: Cellular Axl inhibition ELISA (p-Axl, Gas6-induced) using H1299 cells. It counts as cell-based. Set-up: especially H1299 cell endogenously expresses Axl; endogenous in cells; host or cells: H1299. The conditions noted are these: read-out: Cellular Axl activity by H1299 Elisa (IC50). How it is done:
Axl is expressed in several of malignant cancer cells; especially H1299 cell endogenously expresses Axl; and an increased phosphorylation of Axl (p-Axl) can be observed, when induced by the Axl ligand, Ga6.
The H1299 cells should be 40-80% confluent in the cell culture flask. Then cells are washed with DPBS and trypsinized. After centrifugation, the cell pellet is re-suspended with pre-warmed culture medium (RPMI1640, 10% FBS) and cells are separated by pipetting 6 times up and down with a 10 ml serological pipette. The cell suspension was diluted to a final concentration of 1.25×10^5 cells/ml. Then 80 μl/well cell suspension is added to the plate. Cell-plates are incubated at 37° C./5% CO2 overnight. Compounds were dissolved by DMSO to 10 mM, and kept in nitrogen cabinet. Prepare the compounds stock plate, the reference compounds concentration starts at 0.50 mM (5 μl+95 μl DMSO), and the tested compounds start at 1.5 mM (6 μl+34 μl DMSO); Then make a 3-fold dilution series (10 doses) compounds. Then dilute compounds by the medium in the mid plate (2 μl compounds+198 μl medium). Transfer 20 μl diluted compounds from mid plate to the cell coated plate. Cell-plates are incubated at 37° C./5% CO2 for 24 h. Add 25 μl of Human Gas6 (1000 ng/ml) to 96-well plate; the final concentration of Human Gas6 is 200 ng/ml. Incubate the plates at 37° C./5% CO2 for 1 h. Remove medium and wash cells once with 300 ul/well ice-cold 1×PBS. Then remove PBS and add 100 μl/well ice-cold 1× Cell Lysis Buffer to 96-well plate. The plate is shaken for 40 min at 4° C. Then plates can be stored at −20° C. After the micro-wells strips have reached room temperature, break off the required number of micro-wells. Place the micro-wells in the strip holder. Unused micro-wells must be resealed and stored at 4° C. immediately. Add 60 μl of cell lysate to the appropriate well. Seal with tape and press firmly onto top of micro-wells. Incubate the plate at 37° C. for 2 h. Gently remove the tape and wash wells 5 times with 1× Wash Buffer, 300 μl each time for each well. Add 100 μl of reconstituted Detection Antibody (green color) to each well. Seal with tape and incubate the plate at 37° C. for 1 h. Repeat wash procedure. Add 100 μl of reconstituted HRP Linked secondary antibody to each well. Seal with tape and incubate the plate at 37° C. for 30 min. Repeat wash procedure. Add 100 μl of TMB Substrate to each well. Seal with tape and incubate the plate at 37° C. for 15 min. Add 100 μl of STOP Solution to each well. Shake gently for a few seconds. Read absorbance at 450 nm within 30 min after adding STOP Solution. Calculations and Formulas: The following calculations and formulas are used for data analysis using XL Fit software: The curve fitting was made using the Sigmoidal Dose-Response Model (Fit model, 205).
On the technique in general: An ELISA detects its analyte on a solid surface through an enzyme-linked reagent.
Turning to `COc1cc2nccc(Oc3ccc(NC(=O)c4nn(CCO)cc4OCC(F)(F)F)cn3)c2cc1OC` [Compound 129], the IC50 is no less than 1 µM.

In the case of `COc1cc2nccc(Oc3ccc(NC(=O)c4nn(CCOC5CC5)cc4OCC(F)(F)F)cn3)c2cc1OC` [Compound 130], the IC50 is no less than 1 µM.

For the compound `COc1cc2nccc(Oc3ccc(NC(=O)c4nn(C5CCCC5)cc4OCC(F)(F)F)cn3)c2cc1OC` [Compound 131], the IC50 was less than 0.5 µM.

For `COc1cc2nccc(Oc3ccc(NC(=O)c4nn(C5CCNC5)cc4OCC(F)(F)F)cn3)c2cc1OC` (stereo not shown) [Compound 132], the IC50 was no less than 1 µM.

As to `COc1cc2nccc(Oc3ccc(NC(=O)c4nn(C5CCN(C)C5)cc4OCC(F)(F)F)cn3)c2cc1OC` (stereo not shown) [Compound 133], the IC50 was no less than 1 µM.

For the compound `COc1cc2nccc(Oc3ccc(NC(=O)c4nn(CC5COC5)cc4OCC(F)(F)F)cn3)c2cc1OC` [Compound 134], the IC50 was less than 0.5 µM.

Turning to `COc1cc2nccc(Oc3ccc(NC(=O)c4nn(CCN)cc4OCC(F)(F)F)cn3)c2cc1OC` [Compound 135], the IC50 was no less than 1 µM.

Turning to `COc1cc2nccc(Oc3ccc(NC(=O)c4nn(CC(C)O)cc4OCC(F)(F)F)cn3)c2cc1OC` (stereo not shown) [Compound 136], the IC50 was no less than 1 µM.

For the compound `CNCCn1cc(OCC(F)(F)F)c(C(=O)Nc2ccc(Oc3ccnc4cc(OC)c(OC)cc34)nc2)n1` [Compound 137], the IC50 is no less than 1 µM.

For the compound `COc1cc2nccc(Oc3ccc(NC(=O)c4nn(C5CCOC5)cc4OCC(F)(F)F)cn3)c2cc1OC` (stereo not shown) [Compound 138], the IC50 was less than 0.5 µM.

With `CCCn1cc(OCC(F)(F)F)c(C(=O)Nc2ccc(Oc3ccnc4cc(OC)c(OC)cc34)nc2)n1` [Compound 139], the IC50 is less than 0.5 µM.

For the compound `CCCn1cc(OCCNC)c(C(=O)Nc2ccc(Oc3ccnc4cc(OC)c(OC)cc34)cn2)n1` [Compound 140], the IC50 is no less than 1 µM.

`CNCCOc1cn(C2CC2)nc1C(=O)Nc1ccc(Oc2ccnc3cc(OC)c(OC)cc23)cn1` [Compound 141]: the IC50 was no less than 1 µM.

For `COc1cc2nccc(Oc3ccc(NC(=O)c4nn(C5CC5)cc4NCCC(F)(F)F)nc3)c2cc1OC` [Compound 142], the IC50 is less than 0.5 µM.

Consider `COc1cc2nccc(Oc3ccc(NC(=O)c4nn(C5CC5)cc4OCC4COC4)nc3)c2cc1OC` [Compound 143], for which the IC50 is less than 0.5 µM.

As for `COc1cc2nccc(Oc3ccc(NC(=O)c4nn(C5CC5)cc4OCC4CNC4)nc3)c2cc1OC` [Compound 144], the 50% inhibitory concentration (IC50) was no less than 1 µM.

In the case of `COc1cc2nccc(Oc3ccc(NC(=O)c4nn(C5CC5)cc4NCC(F)(F)F)nc3)c2cc1OC` [Compound 145], the IC50 was less than 0.5 µM.

With `COc1cc2nccc(Oc3ccc(NC(=O)c4nn(C5CC5)cc4NCCC(F)(F)F)nn3)c2cc1OC` [Compound 146], the IC50 is less than 0.5 µM.

In the case of `COc1cc2nccc(Oc3ccc(NC(=O)c4nn(C5CC5)cc4OC(C)C)nn3)c2cc1OC` [Compound 147], the IC50 was less than 0.5 µM.

On to `COc1cc2nccc(Oc3ccc(NC(=O)c4nn(C5CC5)cc4NCC(F)(F)F)nn3)c2cc1OC` [Compound 148], for which the IC50 is less than 0.5 µM.

As for `COc1cc2nccc(Oc3ccc(NC(=O)c4nn(C5CC5)cc4OCC4CCC4)nn3)c2cc1OC` [Compound 149], the IC50 is less than 0.5 µM.

With `COCCOc1cn(CC(C)O)nc1C(=O)Nc1ccc(Oc2ccnc3cc(OC)c(OC)cc23)cn1` (stereo not shown) [Compound 150], the IC50 was less than 0.5 µM.

With `COc1cc2nccc(Oc3ccc(NC(=O)c4nn(CC(C)O)cc4OC(C)C)nc3)c2cc1OC` (stereo not shown) [Compound 151], the IC50 was less than 0.5 µM.

Consider `COc1cc2nccc(Oc3ccc(NC(=O)c4nn(CC(C)O)cc4OCCF)nc3)c2cc1OC` (stereo not shown) [Compound 152], for which the half-maximal inhibitory concentration (IC50) is 0.5 to 1 µM.

In the case of `COc1cc2nccc(Oc3ccc(NC(=O)c4nn(CCOC5CC5)cc4OCC(F)(F)F)nc3)c2cc1OC` [Compound 153], the IC50 was less than 0.5 µM.

With `CNCCn1cc(OCC(F)(F)F)c(C(=O)Nc2ccc(Oc3ccnc4cc(OC)c(OC)cc34)cc2F)n1` [Compound 154], the IC50 was 0.5 to 1 µM.

For `CNCCn1cc(OCC(F)(F)F)c(C(=O)Nc2ccc(Oc3ccnc4cc(OC)c(OC)cc34)c(F)c2)n1` [Compound 155], the IC50 was less than 0.5 µM.

As to `CNCCn1cc(OCC(F)(F)F)c(C(=O)Nc2ccc(Oc3ccnc4cc(OC)c(OC)cc34)c(C)c2)n1` [Compound 156], the concentration for half-maximal inhibition (IC50) is no less than 1 µM.

Regarding `COc1cc2nccc(Oc3ccc(NC(=O)c4nn(C5CCN(C)C5)cc4OCC(F)(F)F)nn3)c2cc1OC` (stereo not shown) [Compound 157], the IC50 was no less than 1 µM.

Consider `CCCn1cc(NCCC(F)(F)F)c(C(=O)Nc2ccc(Oc3ccnc4cc(OC)c(OC)cc34)cn2)n1` [Compound 158], for which the IC50 is less than 0.5 µM.

Take `CCCn1cc(OCC2CNC2)c(C(=O)Nc2ccc(Oc3ccnc4cc(OC)c(OC)cc34)cn2)n1` [Compound 159]: the IC50 was no less than 1 µM.

On to `CNCCOc1cn(C2CC2)nc1C(=O)Nc1ccc(Oc2ccnc3cc(OC)c(OC)cc23)nn1` [Compound 160], for which the IC50 was no less than 1 µM.

As for `COc1cc2nccc(Oc3ccc(NC(=O)c4nn(C5CC5)cc4OCC4COC4)nn3)c2cc1OC` [Compound 161], the IC50 was less than 0.5 µM.

Take `COc1cc2nccc(Oc3ccc(NC(=O)c4nn(C5CC5)cc4OCC(F)F)nn3)c2cc1OC` [Compound 162]: the IC50 was less than 0.5 µM.

Regarding `COc1cc2nccc(Oc3ccc(NC(=O)c4nn(CC(C)O)cc4OCC4CCC4)nc3)c2cc1OC` (stereo not shown) [Compound 163], the IC50 is less than 0.5 µM.

Regarding `CCCn1cc(OCC2CCOCC2)c(C(=O)Nc2ccc(Oc3ccnc4cc(OC)c(OC)cc34)cn2)n1` [Compound 164], the IC50 was less than 0.5 µM.

For `CCCn1cc(OCCN(C)C)c(C(=O)Nc2ccc(Oc3ccnc4cc(OC)c(OC)cc34)c(F)c2)n1` [Compound 165], the IC50 was less than 0.5 µM.
